Here are results for 2 compounds from publication doi:10.1101/2024.11.24.625011v1 (biorxiv, 2024).

A word on the Kd: it is the concentration at which binding is half-saturated. Lower therefore signals tighter binding.

The target of this assay is T1, RetSDISMED2 (PaRetSp); RetS (residues 41-185) (Pseudomonas aeruginosa, UniProt Q9HUV7).
T1 sequence (Q9HUV7 41-185): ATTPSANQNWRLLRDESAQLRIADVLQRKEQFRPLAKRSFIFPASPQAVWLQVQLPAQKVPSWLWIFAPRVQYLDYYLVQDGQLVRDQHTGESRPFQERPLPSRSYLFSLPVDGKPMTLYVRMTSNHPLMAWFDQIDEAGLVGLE
Put plainly: isothermal titration calorimetry. The format is binding. Background: In ITC the heat of successive injections is recorded.

For the compound `CCCCc1oc2ccc(NS(C)(=O)=O)cc2c1C(=O)c1ccc(OCCCN(CCCC)CCCC)cc1` [dronedarone], the Kd is approximately 3600 nM.
The value for `NC[C@H](O)c1ccc(O)c(O)c1` [norepinephrine] was approximately 1000 nM.
